Our source for the mutagenic call values is PubChem BioAssay AID1259407 (Chemical Carcinogenesis Research Information System (CCRIS), 2018).

The data set concerns CCRIS mutagenicity, Ames/micronucleus/aberration tests. Nature of the data set: CCRIS mutagenicity studies. To be noted: Test System: AMES SALMONELLA TYPHIMURIUM
[1] abbreviates: Strain/Indicator: TA98, Metabolic Activation: NONE, Method: STANDARD PLATE.
[2] abbreviates: Strain/Indicator: TA100, Metabolic Activation: NONE, Method: STANDARD PLATE.

Molecules are shown by their SMILES. Active and inactive are the calls of the source. No rule for the calls is given here.

In the case of `C=C(C)C1Cc2c(cc(O)c3c(=O)c4ccccc4n(C)c23)O1` (stereo unspecified), the mutagenic call is “inactive; negative” under setting [1]; “active; positive” (Strain/Indicator: TA98, Metabolic Activation: RAT, LIVER, S-9, 3-METHYLCHOLANTHRENE, Method: STANDARD PLATE); “active; positive” (Strain/Indicator: TA98, Metabolic Activation: RAT, LIVER, S-9, PHENOBARBITAL, Method: STANDARD PLATE); “active; positive” (Strain/Indicator: TA98, Metabolic Activation: RAT, LIVER, S-9, Method: STANDARD PLATE); “inactive; negative” under setting [2]; “active; positive” (Strain/Indicator: TA100, Metabolic Activation: RAT, LIVER, S-9, 3-METHYLCHOLANTHRENE, Method: STANDARD PLATE). The mutagenic call (Strain/Indicator: TA100, Metabolic Activation: RAT, LIVER, S-9, PHENOBARBITAL, Method: STANDARD PLATE) is “active; positive” and the mutagenic call (Strain/Indicator: TA100, Metabolic Activation: RAT, LIVER, S-9, Method: STANDARD PLATE) is “active; positive”.

`CC(C)CN(CC(C)C)CC(C)C`: the mutagenic call is “inactive; negative” (Strain/Indicator: TA98, Metabolic Activation: HAMSTER, LIVER, S-9, AROCLOR 1254 (10%), Method: PREINCUBATION); “inactive; negative” (Strain/Indicator: TA98, Metabolic Activation: NONE, Method: PREINCUBATION); “inactive; negative” (Strain/Indicator: TA98, Metabolic Activation: RAT, LIVER, S-9, AROCLOR 1254 (10%), Method: PREINCUBATION); “inactive; negative” (Strain/Indicator: TA100, Metabolic Activation: HAMSTER, LIVER, S-9, AROCLOR 1254 (10%), Method: PREINCUBATION); “inactive; negative” (Strain/Indicator: TA100, Metabolic Activation: NONE, Method: PREINCUBATION); “inactive; negative” (Strain/Indicator: TA100, Metabolic Activation: RAT, LIVER, S-9, AROCLOR 1254 (10%), Method: PREINCUBATION). The mutagenic call was “inactive; negative” (Strain/Indicator: TA1535, Metabolic Activation: HAMSTER, LIVER, S-9, AROCLOR 1254 (10%), Method: PREINCUBATION); “inactive; negative” (Strain/Indicator: TA1535, Metabolic Activation: NONE, Method: PREINCUBATION); “inactive; negative” (Strain/Indicator: TA1535, Metabolic Activation: RAT, LIVER, S-9, AROCLOR 1254 (10%), Method: PREINCUBATION); “inactive; negative” (Strain/Indicator: TA1537, Metabolic Activation: HAMSTER, LIVER, S-9, AROCLOR 1254 (10%), Method: PREINCUBATION); “inactive; negative” (Strain/Indicator: TA1537, Metabolic Activation: NONE, Method: PREINCUBATION); “inactive; negative” (Strain/Indicator: TA1537, Metabolic Activation: RAT, LIVER, S-9, AROCLOR 1254 (10%), Method: PREINCUBATION).

On to `C1COCO1`, for which the mutagenic call under setting [1] is “inactive; negative”; the mutagenic call (Strain/Indicator: TA98, Metabolic Activation: RAT, LIVER, S-9, AROCLOR 1254, Method: STANDARD PLATE) is “inactive; negative”; the mutagenic call under setting [2] is “inactive; negative”; the mutagenic call (Strain/Indicator: TA100, Metabolic Activation: RAT, LIVER, S-9, AROCLOR 1254, Method: STANDARD PLATE) was “inactive; negative”; the mutagenic call (Strain/Indicator: TA1535, Metabolic Activation: NONE, Method: STANDARD PLATE) is “inactive; negative”; the mutagenic call (Strain/Indicator: TA1535, Metabolic Activation: RAT, LIVER, S-9, AROCLOR 1254, Method: STANDARD PLATE) was “inactive; negative”. The mutagenic call reads like this: (Strain/Indicator: TA1537, Metabolic Activation: NONE, Method: STANDARD PLATE) “inactive; negative”; (Strain/Indicator: TA1537, Metabolic Activation: RAT, LIVER, S-9, AROCLOR 1254, Method: STANDARD PLATE) “inactive; negative”; (Strain/Indicator: TA1538, Metabolic Activation: NONE, Method: STANDARD PLATE) “inactive; negative”; (Strain/Indicator: TA1538, Metabolic Activation: RAT, LIVER, S-9, AROCLOR 1254, Method: STANDARD PLATE) “inactive; negative”.

In the case of `O=C1OCC(C(Br)Br)=C1Br`, the mutagenic call under setting [2] is “active; positive”.
